One test deals with M tb H37Rv. The test is described as follows: MIC determination against M tb H37Rv (green fluorescent protein reporter assay; MIC-MABA). The conditions noted are these: Mycobacterium tuberculosis, H37RV, 240 h, read-out: M. TB H37Rv: MIC-MABA: MIC, M. tb H37Rv; 7H9 broth; 10 days exposure; MIC = lowest concentration inhibiting fluorescence by 90%. Type of test: cell-based, Mycobacterium tuberculosis. (Reporter assays use an easily measured gene product as a stand-in for the process of interest.)

The next test has as its system Mycobacterium abscessus. Put plainly: MIC against Mycobacterium abscessus (Mab_ATCC, MHII broth). Conditions: Mycobacteroides abscessus; Mycobacterium abscessus ATCC strain; Mueller-Hinton broth (MHII). Type of test: cell-based. The source says:
Key for Tables: MIC: Minimum Inhibitory Concentration; MABA: microplate-based Alamar Blue assay; Mab: Mycobacterium abscessus; ATCC: American Type Culture Collection; and MHII: Mueller-Hinton broth.

≈ marks a conversion by molar mass, not a printed value. Bounds are passed on as bounds.

One may read the MIC as the lowest concentration that inhibits growth of the organism. In the case of `Cc1cc(Cl)c2cc(C(=O)NC3CC4CCC3(C)C4(C)C)[nH]c2n1` (stereo not drawn) [MPL-195, 4-chloro-6-methyl-N-(1,7,7-trimethylnorbornan-2-yl)-1H-pyrrolo[2,3-b]pyridine-2-carboxamide], the MIC in the test with M tb H37Rv came out at 0.014 µg/mL (≈ 0.0405 µM); in the test with Mycobacterium abscessus, 2 µg/mL (≈ 5.78 µM). Take `C[C@@H]1[C@@H](NC(=O)c2cc3c(Br)ccnc3[nH]2)C[C@H]2C[C@@H]1C2(C)C` [MPL-012, 4-bromo-N-[(1S,2S,3S,5R)-2,6,6-trimethylnorpinan-3-yl]-1H-pyrrolo[2,3-b]pyridine-2-carboxamide]: the MIC with M tb H37Rv came to 0.048 µg/mL (≈ 0.128 µM); against Mycobacterium abscessus, 4 µg/mL (≈ 10.6 µM).

Regarding `Cc1cc(F)c2cc(C(=O)NC3CCCCCCC3)[nH]c2n1` [MPL-044, N-cyclooctyl-4-fluoro-6-methyl-1H-pyrrolo[2,3-b]pyridine-2-carboxamide], the MIC in the test with M tb H37Rv came to 0.013 µg/mL (≈ 0.0429 µM); against Mycobacterium abscessus, 2 µg/mL (≈ 6.59 µM). In the case of `Cc1nc2[nH]c(C(=O)NC3CC[Si](C)(C)CC3)cc2c(F)c1C` [MPL-471, N-(1,1-dimethylsilinan-4-yl)-4-fluoro-5,6-dimethyl-1H-pyrrolo[2,3-b]pyridine-2-carboxamide], the values for the MIC with M tb H37Rv and with Mycobacterium abscessus were 0.069 µg/mL (≈ 0.207 µM) and 1 µg/mL (≈ 3 µM), respectively. As for `Cc1nc2[nH]c(C(=O)N[C@H]3CC[Si](C)(C)C3)cc2c(F)c1F` (single isomer, unassigned) [MPL-295B], the figures for the MIC with M tb H37Rv and against Mycobacterium abscessus were less than 0.004 µg/mL and 0.12 µg/mL (≈ 0.371 µM), respectively. Consider `Cc1cc2cc(C(=O)N[C@H]3C[C@H]4C[C@@H]([C@@H]3C)C4(C)C)[nH]c2cn1` [MPL-124, 5-methyl-N-[(1S,2S,3S,5R)-2,6,6-trimethylnorpinan-3-yl]-1H-pyrrolo[2,3-c]pyridine-2-carboxamide], for which the MIC stood at 3.1 µg/mL (≈ 9.95 µM) in the test on M tb H37Rv and 16 µg/mL (≈ 51.4 µM) in the test on Mycobacterium abscessus.

Regarding `COc1cc(F)c2cc(C(=O)NC3CC[Si](C)(C)CC3)[nH]c2n1` [MPL-468, N-(1,1-dimethylsilinan-4-yl)-4-fluoro-6-methoxy-1H-pyrrolo[2,3-b]pyridine-2-carboxamide], the MIC with M tb H37Rv amounted to 0.023 µg/mL (≈ 0.0686 µM); against Mycobacterium abscessus, 0.12 µg/mL (≈ 0.358 µM). With `CC1(C)CCC(NC(=O)c2cc3cc(Cl)ncc3[nH]2)CC1` [MPL-127, 5-chloro-N-(4,4-dimethylcyclohexyl)-1H-pyrrolo[2,3-c]pyridine-2-carboxamide], the MIC with M tb H37Rv is 0.54 µg/mL (≈ 1.77 µM); in the test on Mycobacterium abscessus it was 8 µg/mL (≈ 26.2 µM). For `COc1ccc2cc(C(=O)N[C@@H]3CCC[Si](C)(C)CC3)[nH]c2n1` (single isomer, unassigned) [MPL-466B], the minimum inhibitory concentration (MIC) is more than 1 µg/mL in the test on M tb H37Rv and 8 µg/mL (≈ 24.1 µM) with Mycobacterium abscessus.

Take `Cc1nc2[nH]c(C(=O)NC3CC[Si](C)(C)CC3)cc2c(F)c1Cl` [MPL-232, 5-chloro-N-(1,1-dimethylsilinan-4-yl)-4-fluoro-6-methyl-1H-pyrrolo[2,3-b]pyridine-2-carboxamide]: the MIC stood at 0.03 µg/mL (≈ 0.0848 µM) in the test with M tb H37Rv and 0.38 µg/mL (≈ 1.07 µM) with Mycobacterium abscessus.

As for `Cc1nc2[nH]c(C(=O)NC3CC[Si](C)(C)CC3)cc2c(Cl)c1Cl` [MPL-230, 4,5-dichloro-N-(1,1-dimethylsilinan-4-yl)-6-methyl-1H-pyrrolo[2,3-b]pyridine-2-carboxamide], the MIC with M tb H37Rv is 0.004 µg/mL (≈ 0.0108 µM); in the test on Mycobacterium abscessus, 16 µg/mL (≈ 43.2 µM). The matching figures for `C[Si]1(C)CCC(NC(=O)c2cc3ccc(OC4CC4)nc3[nH]2)CC1` [MPL-464, 6-(cyclopropoxy)-N-(1,1-dimethylsilinan-4-yl)-1H-pyrrolo[2,3-b]pyridine-2-carboxamide]: 0.124 µg/mL (≈ 0.361 µM) and 1 µg/mL (≈ 2.91 µM).

As to `COc1ccc2cc(C(=O)NC3CCC(C)(C)CC3)[nH]c2n1` [MPL-453, N-(4,4-dimethylcyclohexyl)-6-methoxy-1H-pyrrolo[2,3-b]pyridine-2-carboxamide], the results for the MIC in the test with M tb H37Rv and against Mycobacterium abscessus were 0.284 µg/mL (≈ 0.942 µM) and 0.5 µg/mL (≈ 1.66 µM), respectively. In the case of `Cc1cc(Cl)c2cc(C(=O)NC3CCC(C)(C)CC3)[nH]c2n1` [MPL-119, 4-chloro-N-(4,4-dimethylcyclohexyl)-6-methyl-1H-pyrrolo[2,3-b]pyridine-2-carboxamide], the MIC was determined as 0.14 µg/mL (≈ 0.438 µM) with M tb H37Rv and 0.5 µg/mL (≈ 1.56 µM) in the test on Mycobacterium abscessus. For the compound `Cc1cc2cc(C(=O)N[C@H]3C[C@H]4C[C@@H]([C@@H]3C)C4(C)C)[nH]c2c(F)n1` [MPL-122, 7-fluoro-5-methyl-N-[(1S,2S,3S,5R)-2,6,6-trimethylnorpinan-3-yl]-1H-pyrrolo[2,3-c]pyridine-2-carboxamide], the MIC in the test on M tb H37Rv was 3.1 µg/mL (≈ 9.41 µM). Turning to `COc1cncc2[nH]c(C(=O)NC3CC[Si](C)(C)CC3)cc12` [MPL-202, N-(1,1-dimethylsilinan-4-yl)-4-methoxy-1H-pyrrolo[2,3-c]pyridine-2-carboxamide], the MIC with M tb H37Rv was 0.11 µg/mL (≈ 0.346 µM). Consider `O=C(NC1CC[Si]2(CCCCC2)CC1)c1cc2c(Cl)cncc2[nH]1` [MPL-260, 4-chloro-N-(6-silaspiro[5.5]undecan-3-yl)-1H-pyrrolo[2,3-c]pyridine-2-carboxamide], for which, in the test with M tb H37Rv, the minimal inhibitory concentration (MIC) worked out at 0.0075 µg/mL (≈ 0.0207 µM). For the compound `CC1(C)[C@H]2C[C@H](NC(=O)c3cc4c(F)c(F)cnc4[nH]3)[C@](C)(O)[C@@H]1C2` [MPL-219, 4,5-difluoro-N-[(1R,2R,3S,5R)-2-hydroxy-2,6,6-trimethyl-norpinan-3-yl]-1H-pyrrolo[2,3-b]pyridine-2-carboxamide], in the test with M tb H37Rv, the minimum inhibitory concentration (MIC) was 0.9 µg/mL (≈ 2.58 µM). Same read-out and setting: under `O=C(NC1CCCCCCC1)c1cc2c(Br)ccnc2[nH]1` [MPL-035, 4-bromo-N-cyclooctyl-1H-pyrrolo[2,3-b]pyridine-2-carboxamide] stands 0.14 µg/mL (≈ 0.4 µM); under `C[C@@H]1[C@@H](NC(=O)c2cc3c(F)c(F)cnc3[nH]2)C[C@H]2C[C@@H]1C2(C)C` [MPL-062, 4,5-difluoro-N-[(1S,2S,3S,5R)-2,6,6-trimethylnorpinan-3-yl]-1H-pyrrolo[2,3-b]pyridine-2-carboxamide], 0.19 µg/mL (≈ 0.57 µM). For the compound `Cc1c(C(=O)N[C@H]2C[C@H]3C[C@@H]([C@@H]2C)C3(C)C)[nH]c2nccc(F)c12` [MPL-174, 4-fluoro-3-methyl-N-[(1S,2S,3S,5R)-2,6,6-trimethylnorpinan-3-yl]-1H-pyrrolo[2,3-b]pyridine-2-carboxamide], the minimum inhibitory concentration (MIC) in the test with M tb H37Rv came to 0.19 µg/mL (≈ 0.577 µM). For `C[Si]1(C)CCC(NC(=O)c2cc3cc(-c4ccccc4)ncc3[nH]2)CC1` [MPL-445], the MIC in the test on M tb H37Rv was determined as 0.119 µg/mL (≈ 0.327 µM). As to `CC1(C)CCC(NC(=O)c2cc3c(F)c(Cl)ncc3[nH]2)CC1` [MPL-139, 5-chloro-N-(4,4-dimethylcyclohexyl)-4-fluoro-1H-pyrrolo[2,3-c]pyridine-2-carboxamide], in the test on M tb H37Rv, the minimum inhibitory concentration (MIC) came to 0.24 µg/mL (≈ 0.741 µM). Compound `CC1(C)C2CCC1(C)C(NC(=O)c1cc3c(F)cncc3[nH]1)C2` (stereo not drawn) [MPL-188, 4-fluoro-N-(1,7,7-trimethylnorbornan-2-yl)-1H-pyrrolo[2,3-c]pyridine-2-carboxamide] gave an MIC with Mycobacterium abscessus of 8 µg/mL (≈ 25.4 µM). For `Cc1nc2[nH]c(C(=O)N[C@H]3C[C@H]4C[C@H](C4(C)C)[C@@]3(C)O)cc2c(F)c1F` [MPL-294, 4,5-difluoro-N-[(1R,2R,3S,5R)-2-hydroxy-2,6,6-trimethyl-norpinan-3-yl]-6-methyl-1H-pyrrolo[2,3-b]pyridine-2-carboxamide], the MIC in the test on M tb H37Rv is more than 1 µg/mL. Take `Cc1nc(Cl)c(F)c2cc(C(=O)NC3CC[Si](C)(C)CC3)[nH]c12` [MPL-236, 5-chloro-N-(1,1-dimethylsilinan-4-yl)-4-fluoro-7-methyl-1H-pyrrolo[2,3-c]pyridine-2-carboxamide]: the MIC in the test with M tb H37Rv turned out to be 0.18 µg/mL (≈ 0.509 µM). On to `O=C(NC1CCC2(CC1)CC2(F)F)c1cc2c(Cl)cncc2[nH]1` (stereo not drawn) [MPL-164, 4-chloro-N-(1,1-difluorospiro[2.5]octan-6-yl)-1H-pyrrolo[2,3-c]pyridine-2-carboxamide], for which the MIC in the test on M tb H37Rv was determined as 0.35 µg/mL (≈ 1.03 µM).

For `CC1(C)C=CC(NC(=O)c2cc3c(F)ccnc3[nH]2)CC1` (stereo not drawn) [MPL-160, N-(4,4-dimethylcyclohex-2-en-1-yl)-4-fluoro-1H-pyrrolo[2,3-b]pyridine-2-carboxamide], in the test on M tb H37Rv, the MIC amounted to 0.77 µg/mL (≈ 2.68 µM). Regarding `C[Si]1(C)CCC(NC(=O)c2cc3cc(C(F)(F)F)ncc3[nH]2)C1` (stereo not drawn) [MPL-402, N-(1,1-dimethylsilolan-3-yl)-5-(trifluoromethyl)-1H-pyrrolo[2,3-c]pyridine-2-carboxamide], the MIC in the test with M tb H37Rv turned out to be 0.962 µg/mL (≈ 2.82 µM). Consider `Cc1nc2[nH]c(C(=O)NC3CCC(C)(C)CC3)cc2c(F)c1Cl` [MPL-069, 5-chloro-N-(4,4-dimethylcyclohexyl)-4-fluoro-6-methyl-1H-pyrrolo[2,3-b]pyridine-2-carboxamide], for which, in the test on M tb H37Rv, the MIC amounted to 0.0099 µg/mL (≈ 0.0293 µM). With `C[Si]1(C)CCC(NC(=O)c2cc3c(F)cncc3[nH]2)CC1` [MPL-191, N-(1,1-dimethylsilinan-4-yl)-4-fluoro-1H-pyrrolo[2,3-c]pyridine-2-carboxamide], the MIC with M tb H37Rv is 0.0087 µg/mL (≈ 0.0285 µM).

As to `Cc1cc(Cl)c2cc(C(=O)N[C@@H]3CC[Si](C)(C)C3)[nH]c2n1` (single isomer, unassigned) [MPL-401A], the MIC in the test on M tb H37Rv worked out at 0.319 µg/mL (≈ 0.991 µM).

With `O=C(NC1CCCCCCC1)c1cc2c(F)ccnc2[nH]1` [MPL-027, N-cyclooctyl-4-fluoro-1H-pyrrolo[2,3-b]pyridine-2-carboxamide], the MIC with M tb H37Rv is 0.61 µg/mL (≈ 2.11 µM). On the same count and under the same terms, under `Cc1cc(Cl)c2cc(C(=O)NC3CC[Si]4(CCCC4)CC3)[nH]c2n1` [MPL-276, 4-chloro-6-methyl-N-(5-silaspiro[4.5]decan-8-yl)-1H-pyrrolo[2,3-b]pyridine-2-carboxamide] stands 0.015 µg/mL (≈ 0.0414 µM); under `C[C@@H]1[C@@H](NC(=O)c2cc3c(C#N)ccnc3[nH]2)C[C@H]2C[C@@H]1C2(C)C` [MPL-013, 4-cyano-N-[(1S,2S,3S,5R)-2,6,6-trimethylnorpinan-3-yl]-1H-pyrrolo[2,3-b]pyridine-2-carboxamide], 1.2 µg/mL (≈ 3.72 µM). Regarding `Cc1c(C(=O)NC2CC[Si](C)(C)CC2)[nH]c2nccc(F)c12` [MPL-210, N-(1,1-dimethylsilinan-4-yl)-4-fluoro-3-methyl-1H-pyrrolo[2,3-b]pyridine-2-carboxamide], the MIC with M tb H37Rv is 0.058 µg/mL (≈ 0.182 µM).

Consider `Cc1nc2[nH]c(C(=O)NC3CCCCCCC3)cc2c(F)c1F` [MPL-290, N-cyclooctyl-4,5-difluoro-6-methyl-1H-pyrrolo[2,3-b]pyridine-2-carboxamide], for which, in the test with M tb H37Rv, the minimal inhibitory concentration (MIC) amounted to 0.005 µg/mL (≈ 0.0156 µM).

The values are drawn from patent US20230002372A1, “AZAINDOLE CARBOXAMIDE COMPOUNDS FOR THE TREATMENT OF MYCOBACTERIAL INFECTIONS” (THE GLOBAL ALLIANCE FOR TB DRUG DEVELOPMENT, INC., priority 2019, published 2023).
